# Test results reported in ChEMBL document CHEMBL4000183, “Phenylpropanoids from Juglans mandshurica exhibit cytotoxicities on liver cancer cell lines through apoptosis induction” (Bioorg Med Chem Lett, 2017).
# Active and inactive are the calls of the source. No cut-off for these calls is given here.
# Assays:
# HepG2 [1] = assay: Cytotoxic activity against human HepG2 cells assessed as growth inhibition after 48 hrs by MTT assay; type: functional, cell-based; details: for IC50: Homo sapiens, HepG2, 48 h
# Hep 3B2 [2] = assay: Cytotoxic activity against human Hep3B cells assessed as growth inhibition after 48 hrs by MTT assay; type: functional, cell-based; details: for IC50: Homo sapiens, Hep3B, 48 h
# Hep 3B2 [3] = assay: Induction of apoptosis in human Hep3B cells assessed as cell shrinkage at 70 uM after 48 hrs by AO staining-based phase contrast microscopic analysis; type: functional
# Hep 3B2 [4] = assay: Induction of apoptosis in human Hep3B cells assessed as increase in Bax level at 70 uM after 48 hrs by Western blot analysis; type: functional, cell-based
# Hep 3B2 [5] = assay: Cytotoxic activity against human Hep3B cells assessed as growth inhibition at 25 uM after 48 hrs by MTT assay; type: functional; details: read-out: GI
# Hep 3B2 [6] = assay: Induction of apoptosis in human Hep3B cells assessed as decrease in Bcl-2 level at 70 uM after 48 hrs by Western blot analysis; type: functional, cell-based
# Hep 3B2 [7] = assay: Cytotoxic activity against human Hep3B cells assessed as growth inhibition at 50 uM after 48 hrs by MTT assay; type: functional; details: read-out: GI
# HepG2 [8] = assay: Induction of apoptosis in human HepG2 cells assessed as decrease in pro-caspase 7 level at 60 uM after 48 hrs by Western blot analysis; type: functional, cell-based
# HepG2 [9] = assay: Induction of apoptosis in human HepG2 cells assessed as formation of apoptotic bodies at 60 uM after 48 hrs by AO staining-based phase contrast microscopic analysis; type: functional, cell-based
# HepG2 [10] = assay: Induction of apoptosis in human HepG2 cells assessed as increase in cleaved-caspase 7 level at 60 uM after 48 hrs by Western blot analysis; type: functional, cell-based
# Hep 3B2 [11] = assay: Cytotoxic activity against human Hep3B cells assessed as growth inhibition at 100 uM after 48 hrs by MTT assay; type: functional; details: read-out: GI
# HepG2 [12] = assay: Cytotoxic activity against human HepG2 cells assessed as growth inhibition at 100 uM after 48 hrs by MTT assay; type: functional; details: HepG2, 48 h, read-out: GI
# Hep 3B2 [13] = assay: Induction of apoptosis in human Hep3B cells assessed as decrease in PARP level at 70 uM after 48 hrs by Western blot analysis; type: functional, cell-based
# Hep 3B2 [14] = assay: Induction of apoptosis in human Hep3B cells assessed as increase in cleaved PARP level at 70 uM after 48 hrs by Western blot analysis; type: functional, cell-based
# HepG2 [15] = assay: Induction of apoptosis in human HepG2 cells assessed as chromatin condensation at 60 uM after 48 hrs by AO staining-based phase contrast microscopic analysis; type: functional, cell-based
# Hep 3B2 [16] = assay: Induction of apoptosis in human Hep3B cells assessed as increase in cleaved-caspase 7 level at 70 uM after 48 hrs by Western blot analysis; type: functional, cell-based
# Hep 3B2 [17] = assay: Induction of apoptosis in human Hep3B cells assessed as increase in cleaved-caspase 9 level at 70 uM after 48 hrs by Western blot analysis; type: functional, cell-based
# HepG2 [18] = assay: Induction of apoptosis in human HepG2 cells assessed as increase in Bax level at 60 uM after 48 hrs by Western blot analysis; type: functional, cell-based
# Hep 3B2 [19] = assay: Induction of apoptosis in human Hep3B cells assessed as nuclear fragmentation at 70 uM after 48 hrs by AO staining-based phase contrast microscopic analysis; type: functional, cell-based
# HepG2 [20] = assay: Cytotoxic activity against human HepG2 cells assessed as growth inhibition at 12.5 uM after 48 hrs by MTT assay; type: functional; details: HepG2, 48 h, read-out: GI
# HepG2 [21] = assay: Induction of apoptosis in human HepG2 cells assessed as decrease in pro-caspase 9 level at 60 uM after 48 hrs by Western blot analysis; type: functional, cell-based
# Hep 3B2 [22] = assay: Induction of apoptosis in human Hep3B cells assessed as decrease in pro-caspase 7 level at 70 uM after 48 hrs by Western blot analysis; type: functional, cell-based
# HepG2 [23] = assay: Cytotoxic activity against human HepG2 cells assessed as growth inhibition at 6.25 uM after 48 hrs by MTT assay; type: functional; details: HepG2, 48 h, read-out: GI
# HepG2 [24] = assay: Induction of apoptosis in human HepG2 cells assessed as decrease in PARP level at 60 uM after 48 hrs by Western blot analysis; type: functional, cell-based
# HepG2 [25] = assay: Cytotoxic activity against human HepG2 cells assessed as growth inhibition at 50 uM after 48 hrs by MTT assay; type: functional; details: HepG2, 48 h, read-out: GI
# HepG2 [26] = assay: Induction of apoptosis in human HepG2 cells assessed as increase in cleaved-caspase 9 level at 60 uM after 48 hrs by Western blot analysis; type: functional, cell-based
# Hep 3B2 [27] = assay: Induction of apoptosis in human Hep3B cells assessed as decrease in pro-caspase 9 level at 70 uM after 48 hrs by Western blot analysis; type: functional, cell-based
# HepG2 [28] = assay: Induction of apoptosis in human HepG2 cells assessed as nuclear fragmentation at 60 uM after 48 hrs by AO staining-based phase contrast microscopic analysis; type: functional, cell-based
# Hep 3B2 [29] = assay: Cytotoxic activity against human Hep3B cells assessed as growth inhibition at 6.25 uM after 48 hrs by MTT assay; type: functional; details: read-out: GI
# Hep 3B2 [30] = assay: Cytotoxic activity against human Hep3B cells assessed as growth inhibition at 12.5 uM after 48 hrs by MTT assay; type: functional; details: read-out: GI
# HepG2 [31] = assay: Induction of apoptosis in human HepG2 cells assessed as decrease in Bcl-2 level at 60 uM after 48 hrs by Western blot analysis; type: functional, cell-based
# HepG2 [32] = assay: Cytotoxic activity against human HepG2 cells assessed as growth inhibition at 25 uM after 48 hrs by MTT assay; type: functional; details: HepG2, 48 h, read-out: GI
# HepG2 [33] = assay: Induction of apoptosis in human HepG2 cells assessed as increase in cleaved PARP level at 60 uM after 48 hrs by Western blot analysis; type: functional, cell-based
# Hep 3B2 [34] = assay: Induction of apoptosis in human Hep3B cells assessed as chromatin condensation at 70 uM after 48 hrs by AO staining-based phase contrast microscopic analysis; type: functional, cell-based
structure (smiles),measurement,setting,value
"CC(/C=C\Oc1ccc(CCCO)cc1)CO (single isomer, unassigned; (+))",growth inhibition (GI),HepG2 [1],13.76%
same,growth inhibition (GI),Hep 3B2 [2],69.59%
CC(CO)CCOc1ccc(/C=C/CO)cc1 (stereo unspecified),growth inhibition (GI),HepG2 [1],9.26%
same,growth inhibition (GI),Hep 3B2 [2],7.75%
CC(CO)CCOc1ccc(/C=C/C=O)cc1 (stereo unspecified),Activity,Hep 3B2 [3],Active
same,Activity,Hep 3B2 [4],Active
same,inhibition of growth at 25 µM,Hep 3B2 [5],0.48%
same,Activity,Hep 3B2 [6],Active
same,inhibition of growth at 50 µM,Hep 3B2 [7],28.9%
same,Activity,HepG2 [8],Active
same,Activity,HepG2 [9],Active
same,Activity,HepG2 [10],Active
same,growth inhibition (GI),HepG2 [1],83.9%
same,IC50,HepG2 [1],58.6 µM
same,inhibition of growth at 100 µM,Hep 3B2 [11],85.8%
same,inhibition of growth at 100 µM,HepG2 [12],80%
same,Activity,Hep 3B2 [13],Active
same,Activity,Hep 3B2 [14],Active
same,Activity,HepG2 [15],Active
same,Activity,Hep 3B2 [16],Active
same,Activity,Hep 3B2 [17],Active
same,Activity,HepG2 [18],Active
same,Activity,Hep 3B2 [19],Active
same,inhibition of growth at 12.5 µM,HepG2 [20],0.24%
same,Activity,HepG2 [21],Active
same,growth inhibition (GI),Hep 3B2 [2],95.08%
same,IC50,Hep 3B2 [2],69.9 µM
same,Activity,Hep 3B2 [22],Active
same,inhibition of growth at 6.25 µM,HepG2 [23],6.6%
same,Activity,HepG2 [24],Active
same,inhibition of growth at 50 µM,HepG2 [25],57%
same,Activity,HepG2 [26],Active
same,Activity,Hep 3B2 [27],Active
same,Activity,HepG2 [28],Active
same,inhibition of growth at 6.25 µM,Hep 3B2 [29],-4.07%
same,inhibition of growth at 12.5 µM,Hep 3B2 [30],-2.42%
same,Activity,HepG2 [31],Active
same,inhibition of growth at 25 µM,HepG2 [32],14.1%
same,Activity,HepG2 [33],Active
same,Activity,Hep 3B2 [34],Active
COC(=O)/C=C/c1ccc(OC/C=C(\C)CO)cc1,growth inhibition (GI),HepG2 [1],86.42%
same,growth inhibition (GI),Hep 3B2 [2],26.16%
O=c1[nH]cc(F)c(=O)[nH]1 [FLUOROURACIL],inhibition of growth at 25 µM,Hep 3B2 [5],51.7%
same,inhibition of growth at 50 µM,Hep 3B2 [7],54.5%
same,growth inhibition (GI),HepG2 [1],51.78%
same,IC50,HepG2 [1],32.6 to 49.7 µM
same,inhibition of growth at 100 µM,Hep 3B2 [11],57%
same,inhibition of growth at 100 µM,HepG2 [12],51.2%
same,inhibition of growth at 12.5 µM,HepG2 [20],32.9%
same,growth inhibition (GI),Hep 3B2 [2],56.74%
same,IC50,Hep 3B2 [2],10.5 to 11.9 µM
same,inhibition of growth at 6.25 µM,HepG2 [23],19.3%
same,inhibition of growth at 50 µM,HepG2 [25],47.3%
same,inhibition of growth at 6.25 µM,Hep 3B2 [29],48.9%
same,inhibition of growth at 12.5 µM,Hep 3B2 [30],50.6%
same,inhibition of growth at 25 µM,HepG2 [32],39.2%
